According to the supplement of paper PMC4862054:

How the values were obtained:
CAL-120 [1] = assay: drug sensitivity score (DSS), CellTox Green (DSS (AUC-based score)); higher = stronger drug effect (viability inhibition or cytotoxicity); extreme values may be limits of the assay; details: incubation time: 72 h
In short: (§1)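 Each compound occupied 5 concentrations in 10-fold steps over its own 10,000-fold range in 384-well plates, into which breast cancer cell lines were seeded as 20 µl suspension. Following 72 h of incubation, CellTox Green fluorescence (485/520 nm) was measured, and CellTiter-Glo luminescence was measured after 10 min at room temperature. Plates were individually normalised to 0.1 % DMSO and a positive kill control. From the area under the fitted dose-response curve, a drug sensitivity score was calculated.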

HCC1599 [2] = assay: as above; details: incubation time: 72 h
In short: as §1

MDA-MB-468 [3] = assay: as above; details: incubation time: 72 h
In short: as §1

HCC1143 = details: 72 h
In short: (§2)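 Seeding of breast cancer cell lines (20 µl suspension) was done into 384-well plates pre-loaded with compound at 5 concentrations, 10-fold apart, covering a compound-specific 10,000-fold range. The plates were incubated for 72 h, read for CellTox Green fluorescence (485/520 nm), and then read for CellTiter-Glo luminescence after 10 min at room temperature. Every plate was normalised to 0.1 % DMSO and a positive kill control. Curve fitting gave the EC50, censored at the top concentration.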

DU-4475 = details: 72 h
In short: as §2

CAL-85-1 [4] = details: 72 h
In short: as §2

CAL-120 [5] = details: 72 h
In short: as §2

SK-BR-3 [6] = details: 72 h
In short: as §2

BT-474 [7] = details: 72 h
In short: as §2

MDA-MB-436 [8] = details: 72 h
In short: as §2

HCC1937 = details: 72 h
In short: as §2

MCF-10A = details: 72 h
In short: as §2

BT-549 [9] = details: 72 h
In short: as §2

HDQ-P1 = details: 72 h
In short: as §2

Hs578T [10] = details: 72 h
In short: as §2

MDA-MB-231 [11] = details: 72 h
In short: as §2

MFM-223 = details: 72 h
In short: as §2

CAL-51 [12] = details: 72 h
In short: as §2

CAL-148 = details: 72 h
In short: as §2

BT-474 [13] = details: 72 h; remark: listed apart in the source
In short: (§3)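 Viability of breast cancer cell lines was measured with CellTiter-Blue after 72 h of incubation on compound-loaded 384-well plates. Cells were seeded in 20 µl onto compound dissolved in 5 µl medium, and 2.5 µl reagent was added for 2 h at 37 °C before reading at 560/590 nm. EC50 was fitted from percent-inhibition dose-response data censored at the highest concentration, normalised per plate to vehicle and a positive kill control, with zero drug sensitivity score rows dropped.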

BT-549 [14] = details: 72 h; remark: listed apart in the source
In short: as §3

Hs578T [15] = details: 72 h; remark: listed apart in the source
In short: as §3

MDA-MB-468 [16] = details: 72 h
In short: as §3

CAL-51 [17] = details: 72 h; remark: listed apart in the source
In short: as §3

MDA-MB-453 [18] = details: 72 h
In short: as §3

HCC1599 [19] = details: 72 h
In short: as §2

MDA-MB-231 [20] = details: 72 h; remark: listed apart in the source
In short: as §3

MDA-MB-453 [21] = details: 72 h; remark: listed apart in the source
In short: as §2

CAL-120 [22] = details: 72 h; remark: listed apart in the source
In short: as §3

CAL-85-1 [23] = assay: normalised viability (% of control), CellTiter-Blue; higher = more viable cells (about 100 = DMSO control); details: incubation time: 72 h
Procedure: (§4)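 DSRT, CellTiter-Blue viability, 72 h incubation. Signal is normalised to DMSO and benzethonium chloride controls. Value is the normalised response at dose 9.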

CAL-51 [24] = assay: as above; details: incubation time: 72 h
Procedure: as §4

MDA-MB-453 [25] = assay: as above; details: incubation time: 72 h
Procedure: as §4

SK-BR-3 [26] = details: 72 h; remark: listed apart in the source
In short: as §3

MDA-MB-436 [27] = details: 72 h; remark: listed apart in the source
In short: as §3

Row | SMILES | drug sensitivity score (CAL-120 [1]) | drug sensitivity score (HCC1599 [2]) | drug sensitivity score (MDA-MB-468 [3]) | EC50, CellTiter-Glo (CAL-120 [5]) | EC50, CellTiter-Glo (BT-474 [7]) | EC50, CellTiter-Glo (MDA-MB-436 [8]) | EC50, CellTiter-Glo (HCC1937) | EC50, CellTiter-Glo (MCF-10A) | EC50, CellTiter-Glo (BT-549 [9]) | EC50, CellTiter-Glo (HDQ-P1) | EC50, CellTiter-Glo (MDA-MB-231 [11]) | EC50, CellTiter-Glo (MFM-223) | EC50, CellTiter-Glo (CAL-51 [12]) | normalised viability (CAL-85-1 [23]) | normalised viability (CAL-51 [24]) | normalised viability (MDA-MB-453 [25]) | other results
1 | Cc1cc(Nc2cc(CN3CCOCC3)c3nc(C)c(Cc4ccc(Cl)cc4F)n3n2)n[nH]1 [Gandotinib] | 0 | 0 | 3.86 | 5.01 µM | 1.11 µM | 1.51 µM | 2.53 µM | 3.14 µM | 2.51 µM | 1.93 µM | 1.3 µM | 0.42 µM | 0.775 µM | – | – | – | EC50, CellTiter-Glo (HCC1143): 1.62 µM; EC50, CellTiter-Glo (DU-4475): 7.86 µM; EC50, CellTiter-Glo (CAL-85-1 [4]): 0.955 µM; EC50, CellTiter-Glo (SK-BR-3 [6]): 4.03 µM; EC50, CellTiter-Glo (Hs578T [10]): 2.66 µM
2 | CCn1c(-c2nonc2N)nc2cnc(Oc3cccc(NC(=O)c4ccc(OCCN5CCOCC5)cc4)c3)cc21 | 0 | 0 | 0.303 | 0.512 µM | 0.206 µM | 3.67 µM | – | 0.0378 µM | 4.29 µM | 2.17 µM | 1.5 µM | – | 4.64 µM | – | – | – | EC50, CellTiter-Glo (DU-4475): > 10 µM; EC50, CellTiter-Glo (SK-BR-3 [6]): 1.88 µM; EC50, CellTiter-Glo (CAL-148): 1.24 µM; EC50, CellTiter-Glo (Hs578T [10]): 2.05 µM
3 | O=C(Nc1cccnc1)N1CCC(Cc2cccc(Oc3ccc(C(F)(F)F)cn3)c2)CC1 [PF-3845] | 0 | 0 | 0 | > 10 µM | – | – | – | – | 3.07 µM | – | – | – | 4.2 µM | – | – | – | EC50, CellTiter-Blue viability (BT-474 [13]): 8.6 µM; EC50, CellTiter-Blue viability (BT-549 [14]): 1.55 µM; EC50, CellTiter-Blue viability (Hs578T [15]): 2.57 µM; EC50, CellTiter-Blue viability (MDA-MB-468 [16]): > 10 µM; EC50, CellTiter-Blue viability (CAL-51 [17]): 5.96 µM; EC50, CellTiter-Blue viability (MDA-MB-453 [18]): 2.64 µM; EC50, CellTiter-Glo (CAL-85-1 [4]): > 10 µM; EC50, CellTiter-Glo (HCC1599 [19]): 9.42 µM
4 | S=P(N1CC1)(N1CC1)N1CC1 [Thio-TEPA] | 0 | 0 | 0 | – | – | – | – | – | 8.21 µM | – | – | – | – | – | – | – | EC50, CellTiter-Blue viability (MDA-MB-231 [20]): 12 µM
5 | COC(=O)c1ccc2c(c1)NC(=O)/C2=C(\Nc1ccc(N(C)C(=O)CN2CCN(C)CC2)cc1)c1ccccc1 [Nintedanib] | 0 | 0 | 2.7 | 2.38 µM | 3.55 µM | 5.34 µM | 4.83 µM | 0.584 µM | 1.91 µM | 1.08 µM | 2.58 µM | 0.408 µM | 1.88 µM | – | – | – | EC50, CellTiter-Glo (HCC1143): 4.78 µM; EC50, CellTiter-Glo (MDA-MB-453 [21]): 3.11 µM
6 | Nc1cc(C(F)(F)F)c(-c2cc(N3CCOCC3)nc(N3CCOCC3)n2)cn1 [Buparlisib] | 0 | 0 | 0 | 8.23 µM | 5.15 µM | – | 6.15 µM | 0.513 µM | 2.36 µM | 1 µM | 9.28 µM | 0.225 µM | 2.4 µM | – | – | – | EC50, CellTiter-Glo (HCC1143): > 10 µM; EC50, CellTiter-Glo (Hs578T [10]): 2.33 µM
7 | NC(=O)c1ccc(I)c([N+](=O)[O-])c1 [Iniparib] | 0.0859 | 0 | 0 | – | – | 0.54 µM | – | – | – | – | – | – | – | – | – | – | EC50, CellTiter-Blue viability (CAL-120 [22]): 3.29 µM
8 | NC(=O)c1ccc(I)c([N+](=O)[O-])c1 [Iniparib] (10000 nM) | – | – | – | – | – | – | – | – | – | – | – | – | – | 98% | 91.6% | 84.8% | –
9 | COc1cc2c(NC3CCN(C(C)C)CC3)nc(N3CCC(F)(F)CC3)nc2cc1OCCCN1CCCC1 [UNC0642] | 4.13 | 0 | 5.22 | – | 7.62 µM | 4.1 µM | > 10 µM | 6.61 µM | – | 9.83 µM | 4.72 µM | 5.79 µM | – | – | – | – | EC50, CellTiter-Glo (CAL-85-1 [4]): 2.99 µM; EC50, CellTiter-Glo (SK-BR-3 [6]): 6.17 µM; EC50, CellTiter-Glo (CAL-148): 5.46 µM; EC50, CellTiter-Glo (MDA-MB-453 [21]): 3.15 µM
10 | CC(C)C[C@@H](C(=O)N[C@H](C(=O)OC1CCCC1)c1ccccc1)[C@H](O)C(=O)NO [Tosedostat] (10000 nM) | – | – | – | – | – | – | – | – | – | – | – | – | – | 49.5% | 33.6% | 18.8% | –
11 | Cc1ccc(NC(=O)c2ccc(CN3CCN(C)CC3)cc2)cc1Nc1nc(-c2cccnc2)cs1 [Masitinib] | 0 | 0.597 | 1.39 | – | 7.58 µM | – | > 10 µM | – | 1.88 µM | 4.91 µM | > 10 µM | > 10 µM | 5.46 µM | – | – | – | EC50, CellTiter-Blue viability (SK-BR-3 [26]): 6.5 µM; EC50, CellTiter-Blue viability (MDA-MB-436 [27]): > 10 µM; EC50, CellTiter-Blue viability (MDA-MB-453 [18]): 4.58 µM; EC50, CellTiter-Glo (SK-BR-3 [6]): 7.39 µM; EC50, CellTiter-Glo (HCC1599 [19]): 9.36 µM; EC50, CellTiter-Glo (MDA-MB-453 [21]): 1.62 µM
12 | CN(C)CCOc1ccc(/C(=C(/CCCl)c2ccccc2)c2ccccc2)cc1 [Toremifene] | 0 | 0 | 4.22 | – | 3.62 µM | – | 9.75 µM | 1.71 µM | – | – | – | 7.34 µM | – | – | – | – | EC50, CellTiter-Blue viability (MDA-MB-436 [27]): 2.2 µM; EC50, CellTiter-Blue viability (MDA-MB-468 [16]): 5.6 µM; EC50, CellTiter-Blue viability (MDA-MB-453 [18]): 7.24 µM
13 | CNC(=O)c1ccc(N2C(=S)N(c3ccc(C#N)c(C(F)(F)F)c3)C(=O)C23CCC3)cc1F [RD162] | 0 | 0 | 0 | – | > 10 µM | – | – | – | – | – | – | – | – | – | – | – | –
14 | N#Cc1ccc(COC[C@H]2O[C@@H](n3c(NCc4ccc(Cl)c(Cl)c4)nc4c(N)ncnc43)[C@H](O)[C@@H]2O)cc1 (10000 nM) | – | – | – | – | – | – | – | – | – | – | – | – | – | 92% | 89.9% | 50.3% | –
15 | O=C(Nc1ccncc1)C(=O)c1cn(Cc2ccc(Cl)cc2)c2ccccc12 [Indibulin] (10000 nM) | – | – | – | – | – | – | – | – | – | – | – | – | – | 38.9% | 24.4% | 36% | –
16 | CN(C)CCOc1ccc(/C(=C(/CCCl)c2ccccc2)c2ccccc2)cc1 [Toremifene] (10000 nM) | – | – | – | – | – | – | – | – | – | – | – | – | – | 83.6% | 105% | 26.5% | –
